Values quoted from earlier work, collected in patent publication US20040081632A1, “Novel antiperspirant/deodorant active for no white residue sticks and soft solids” (priority 2002, published 2004).

conditions: neat organic solvent

RI | Compound
1.454 | CC(O)COC(C)COC(C)CO (stereo not drawn) [tripropylene glycol]
1.411 | COC(C)CCO (stereo not drawn) [3 methoxy butanol]
1.403 | 1-methyl 2-propanol

The remaining lines, values behind:

Compound | RI
CC(O)CO (stereo not drawn) [propylene glycol] | 1.430
CCOCCO [2 ethoxy ethanol] | 1.407
COCCO [2 methoxy ethanol] | 1.402
